The values that follow come from patent US20150218534A1, “MODIFIED DNA POLYMERASE” (TOYOBO CO., LTD., priority 2012, published 2015).

Holding throughout (format): biochemical
In assay [1] the test system is 482 bp of human β-globin. Description: PCR amplification of 482 bp of human β-globin with dUTP in place of dTTP. More on the design: key to Results of PCR in the presence of dUTP 481 bp: A: Amplified; B: Amplified (faint band); C: Not amplified. The conditions noted are these: for Results of PCR in the presence of dUTP 481 bp: dTTP replaced by dUTP, 35 cycles. How it is done: 482 bp of human β-globin was amplified to compare the amplification difference between the case of using dTTP and the case of using dUTP in PCR, and the sensitivity to dUTP was examined. For amplification, each enzyme was used after being mixed with 1 μg of a KOD antibody per U of the enzyme. For PCR, components included in KOD-Plus-Ver. 2 (produced by Toyobo Co. Ltd.) were used. General dNTPs (dATP, dTTP, dCTP, dGTP) in an amount of 0.2 mM were added to 50 μl of individual reaction solutions, and dNTPs (dATP, dUTP, dCTP, dGTP) in an amount of 0.2 mM in which dTTP was replaced by dUTP were added to 50 μl of individual reaction solutions. The reaction solutions contained 1× PCR buffer, 1.5 mM MgSO4, primers represented by SEQ ID NOs: 27 and 28 in an amount of 15 pmol for amplifying […], 10 ng of human genomic DNA (produced by Roche), and 1 U of each respective enzyme mixed with the antibody. PCR was performed using a GeneAmp PCR system 9700 (produced by Applied Biosystems) on the following schedule: preliminary reaction at 94° C. for 2 minutes, followed by 35 cycles, each cycle consisting of 98° C. for 10 seconds and 68° C. for 1 minute. After the completion of each individual reaction, each of the resulting reaction solutions was analyzed using to a DNA-1000 kit for MultiNA (produced by Shimadzu Corporation) to confirm amplified DNA fragments. FIGS. 5 and 6 show the results.

Assay [2] relates to human genomic DNA (about 1.3 kb) with dUTP added. Description: Evaluation of uracil (dUTP) sensitivity by PCR with dUTP added to the reaction. The settings on record: for Evaluation of dUTP resisitance on a 11-point scale: closer to 0 = stronger sensitivity to dUTP, closer to 10 = lower sensitivity, summary of Examples 1 to 3; for dUTP resistance: dUTP added to 0.5, 5, 50, 100, 200 μM, about 1.3 kb, 30 cycles, 1 U enzyme; for sensitivity to dUTP / amount of amplification, comparison with single mutants or wild type: dUTP added to PCR (FIGS. 3 and 4). How it is done:
The uracil sensitivity of the modified DNA polymerase of the present invention can be evaluated by PCR. For example, a dUTP solution is added at a final concentration of 0.5 μM to 200 μM to a common PCR reaction solution containing DNA as a template, a buffer, magnesium, dNTPs, primers, and a DNA polymerase to be evaluated, and thermal cycling is performed. After the reaction, the presence or absence of PCR products is confirmed by ethidium bromide-stained agarose electrophoresis, and the uracil sensitivity can be evaluated by the concentration of accepted dUTP. With a DNA polymerase having high uracil sensitivity, the extension reaction is inhibited by the addition of a small amount of dUTP, and PCR products cannot be confirmed. With a DNA polymerase having low uracil sensitivity, gene amplification by PCR can be confirmed without problem, even if a high concentration of dUTP is added. The modified DNA polymerase with low uracil sensitivity in the present invention refers to a DNA polymerase such that when optimum thermal cycling is performed using any primers and DNA as a template in a reaction buffer optimum for the enzyme, even if a high concentration of dUTP is added, an extension reaction is not inhibited and PCR products can be confirmed, compared to wild-type DNA polymerase, which has no mutation.
More specifically, 10× PCR buffer included in KOD-Plus-Ver. 2 (produced by Toyobo Co. Ltd.) or 10× PCR buffer included in Pfu DNA Polymerase (produced by Agilent) is used; dUTP (produced by Roche) is added to 50 μl of individual reaction solutions containing 1× PCR buffer, 1.5 mM MgSO4, dNTPs (dATP, dTTP, dCTP, and dGTP) in an amount of 0.2 mM, primers represented by SEQ ID NOs: 25 and 26 in an amount of 15 pmol for amplifying about 1.3 kb, 10 ng of human genomic DNA (produced by Roche), and 1 U of each respective enzyme, to final concentrations of 0.5, 5, 50, 100, and 200 μM. PCR is performed using a GeneAmp PCR system 9700 (Applied Biosystems) on the following schedule; preliminary reaction at 94° C. for 30 seconds, followed by 30 cycles, each cycle consisting of 98° C. for 10 seconds, 65° C. for 30 seconds, and 68° C. for 1 minute and 30 seconds. After the completion of each individual reaction, 5 μl of each of the resulting reaction solutions is subjected to agarose electrophoresis, followed by ethidium bromide staining. The uracil sensitivity can be evaluated by confirming amplified DNA fragments of about 1.3 kb under ultraviolet irradiation.
PCR was performed by the following method to evaluate uracil sensitivity. For PCR, components included in KOD-Plus-Ver. 2 (produced by Toyobo Co. Ltd.) were used. dUTP (produced by Roche) was added to 50 μl of individual reaction solutions containing 1× PCR buffer, 1.5 mM MgSO4, dNTPs (dATP, dTTP, dCTP, dGTP) in an amount of 0.2 mM, primers represented by SEQ ID NOs: 25 and 26 in an amount of 15 pmol for amplifying about 1.3 kb, 10 ng of human genomic DNA (produced by Roche), and 1 U of each respective enzyme, to final concentrations of 0.5, 5, 50, 100, and 200 μM. PCR was performed using a GeneAmp PCR system 9700 (produced by Applied Biosystems) on the following schedule: preliminary reaction at 94° C. for 30 seconds, followed by 30 cycles, each cycle consisting of 98° C. for 10 seconds, 65° C. for 30 seconds, and 68° C. for 1 minute and 30 seconds. After the completion of each individual reaction, 5 μl of each of the resulting reaction solutions was subjected to agarose electrophoresis, followed by ethidium bromide staining. Under ultraviolet irradiation, amplified DNA fragments of about 1.3 kb were confirmed. FIGS. 3, 4, 7, and 8 show the results.

Assay [3] relates to 1.3 kbp, 2.8 kbp, and 3.6 kbp of human β-globin. Description: Amplification of long-chain DNA in PCR using dUTP. The settings on record: 1.3, 2.8, 3.6 kbp; 100% dUTP (FIGS. 9 and 10). How it is done:
Amplification of 1.3 kbp, 2.8 kbp, and 3.6 kbp of human β-globin in PCR using dUTP was compared. For amplification, each enzyme was used after being mixed with 1 μg of a KOD antibody per U of the enzyme. For PCR, components included in KOD-Plus-Ver. 2 (produced by Toyobo Co. Ltd.) were used. 50 μl of individual reaction solutions containing 1× PCR buffer, 1.5 mM MgSO4, dNTPs (dATP, dUTP, dCTP, dGTP) in an amount of 2 mM in which dTTP was replaced by dUTP, primers in an amount of 15 pmol (SEQ ID NOs: 25 and 26 for amplification of 1.3 kbp; SEQ ID NOs: 26 and 29 for amplification of 2.8 kbp; SEQ ID NOs: 30 and 31 for amplification of 3.6 kbp), 10 ng of human genomic DNA (produced by Roche), and 1 U of each respective enzyme mixed with the antibody were used. PCR was performed using a GeneAmp PCR system 9700 (Applied Biosystems) on the following schedule: preliminary reaction at 94° C. for 2 minutes, followed by 35 cycles, each cycle consisting of 98° C. for 10 seconds, 65° C. for 30 seconds, and 68° C. for about 1 minute per kbp (1 minute and 30 seconds for amplification of 1.3 kbp; 3 minutes for amplification of 2.8 kbp; 4 minutes for amplification of 3.6 kbp). As a control, amplification was also performed using Taq DNA polymerase. Taq DNA polymerase produced by Toyobo Co. Ltd. mixed with Anti-Taq High (produced by Toyobo Co. Ltd.) was used. 50 μl of a reaction solution containing 1× buffer included in Blend Taq, dNTPs (dATP, dUTP, dCTP, dGTP) in an amount of 2 mM in which dTTP was replaced by dUTP, primers in an amount of 10 pmol the same as the above), 10 ng of human genomic DNA (produced by Roche), and 2.5 U of the enzyme mixed with the antibody was used. PCR was performed using a GeneAmp PCR system 9700 (produced by Applied Biosystems) on the following schedule: preliminary reaction at 94° C. for 2 minutes, followed by 35 cycles, each cycle consisting of 94° C. for 30 seconds, 65° C. for 30 seconds, and 68° C. for about 1 minute per kbp (1 minute and 30 seconds for amplification of 1.3 kbp; 3 minutes for amplification of 2.8 kbp; 4 minutes for amplification of 3.6 kbp). After the completion of each individual reaction, 5 μl of each of the resulting reaction solutions was subjected to agarose electrophoresis, followed by ethidium bromide staining, and the amount of amplified DNA fragments was confirmed under ultraviolet irradiation. FIGS. 9 and 10 show the results.

On to “KOD N210D/P36K: KOD N210D (exo(−)) mutant with P36K”, for which the “Results of PCR in the presence of dUTP 481 bp” value in assay [1] is reported as “A”. In assay [2], the “Evaluation of dUTP resisitance on a 11-point scale” value turned out to be 8 and the “dUTP resistance” value was more than 200 µM.
In the same order, the values of “KOD H147E/P36K: KOD H147E (exo(+)) mutant with P36K” are “A”, 4 and 100 µM.
Turning to “KOD Y7A/P36K: modified KOD DNA polymerase with Y7A and P36K”, the “PCR amplification of 482 bp with dUTP” value in assay [1] (100% dUTP instead of dTTP (FIGS. 5 to 8)) was “allowed for PCR amplification”. The “sensitivity to dUTP / amount of amplification, comparison with single mutants or wild type” value in assay [2] is “more tolerant of the addition of high concentration of dUTP and provided a larger amount of amplification”.

B1: Pfu Y7A/P36H: modified Pfu DNA polymerase with Y7A and P36H (protein, UniProt P61875 1-775, looked up, variant Y7A P36H)
DNA polymerase: MILDVDAITEEGKPVIRLFKKENGKFKIEHDRTFRHYIYALLRDDSKIEEVKKITGERHGKIVRIVDVEKVEKKFLGKPITVWKLYLEHPQDVPTIREKVREHPAVVDIFEYDIPFAKRYLIDKGLIPMEGEEELKILAFDIETLYHEGEEFGKGPIIMISYADENEAKVITWKNIDLPYVEVVSSEREMIKRFLRIIREKDPDIIVTYNGDSFDFPYLAKRAEKLGIKLTIGRDGSEPKMQRIGDMTAVEVKGRIHFDLYHVITRTINLPTYTLEAVYEAIFGKPKEKVYADEIAKAWESGENLERVAKYSMEDAKATYELGKEFLPMEIQLSRLVGQPLWDVSRSSTGNLVEWFLLRKAYERNEVAPNKPSEEEYQRRLRESYTGGFVKEPEKGLWENIVYLDFRALYPSIIITHNVSPDTLNLEGCKNYDIAPQVGHKFCKDIPGFIPSLLGHLLEERQKIKTKMKETQDPIEKILLDYRQKAIKLLANSFYGYYGYAKARWYCKECAESVTAWGRKYIELVWKELEEKFGFKVLYIDTDGLYATIPGGESEEIKKKALEFVKYINSKLPGLLELEYEGFYKRGFFVTKKRYAVIDEEGKVITRGLEIVRRDWSEIAKETQARVLETILKHGDVEEAVRIVKEVIQKLANYEIPPEKLAIYEQITRPLHEYKAIGPHVAVAKKLAAKGVKIKPGMVIGYIVLRGDGPISNRAILAEEYDPKKHKYDAEYYIENQVLPAVLRILEGFGYRKEDLRYQKTRQVGLTSWLNIKKS
Take B1: the “sensitivity to dUTP / amount of amplification, comparison with single mutants or wild type” value in assay [2] was “provided a larger amount of amplification”. In addition, in assay [3], the “amount of amplification of long-chain DNA with dUTP” value was “provided larger amounts of amplification”.

B2: KOD P36K: modified KOD DNA polymerase with P36K (protein, listed as Thermococcus kodakaraensis)
chain: MILDTDYITEDGKPVIRIFKKENGEFKIEYDRTFEKYFYALLKDDSAIEEVKKITAERHGTVVTVKRVEKVQKKFLGRPVEVWKLYFTHPQDVPAIRDKIREHPAVIDIYEYDIPFAKRYLIDKGLVPMEGDEELKMLAFDIETLYHEGEEFAEGPILMISYADEEGARVITWKNVDLPYVDVVSTEREMIKRFLRVVKEKDPDVLITYNGDNFDFAYLKKRCEKLGINFALGRDGSEPKIQRMGDRFAVEVKGRIHFDLYPVIRRTINLPTYTLEAVYEAVFGQPKEKVYAEEITTAWETGENLERVARYSMEDAKVTYELGKEFLPMEAQLSRLIGQSLWDVSRSSTGNLVEWFLLRKAYERNELAPNKPDEKELARRRQSYEGGYVKEPERGLWENIVYLDFRSLYPSIIITHNVSPDTLNREGCKEYDVAPQVGHRFCKDFPGFIPSLLGDLLEERQKIKKKMKATIDPIERKLLDYRQRAIKILANSYYGYYGYARARWYCKECAESVTAWGREYITMTIKEIEEKYGFKVIYSDTDGFFATIPGADAETVKKKAMEFLKYINAKLPGALELEYEGFYKRGFFVTKKKYAVIDEEGKITTRGLEIVRRDWSEIAKETQARVLEALLKDGDVEKAVRIVKEVTEKLSKYEVPPEKLVIHEQITRDLKDYKATGPHVAVAKRLAARGVKIRPGTVISYIVLKGSGRIGDRAIPFDEFDPTKHKYDAEYYIENQVLPAVERILRAFGYRKEDLRYQKTRQVGLSAWLKPKGT
As for B2, the “Results of PCR in the presence of dUTP 481 bp” value in assay [1] was “A”. In assay [2], the “Evaluation of dUTP resisitance on a 11-point scale” value was 3 and the “dUTP resistance” value is 100 µM. Also, the “PCR products on addition of dUTP” value in assay [2] (some amount of dUTP added) is “PCR products were confirmed”.
